Experimental data: patent US6794396B2, “Substituted pyridines useful for inhibiting cholesteryl ester transfer protein activity” (Pharmacia Corporation, priority 1998, dated 2004)
Where two headings read alike, the source gives them in different places.

Molecular target: T1, CETP (Homo sapiens, UniProt P11597)
T1 construct: made in house; host or cells: CHO cells (serum-free conditioned medium)
T1 sequence (P11597 18-493): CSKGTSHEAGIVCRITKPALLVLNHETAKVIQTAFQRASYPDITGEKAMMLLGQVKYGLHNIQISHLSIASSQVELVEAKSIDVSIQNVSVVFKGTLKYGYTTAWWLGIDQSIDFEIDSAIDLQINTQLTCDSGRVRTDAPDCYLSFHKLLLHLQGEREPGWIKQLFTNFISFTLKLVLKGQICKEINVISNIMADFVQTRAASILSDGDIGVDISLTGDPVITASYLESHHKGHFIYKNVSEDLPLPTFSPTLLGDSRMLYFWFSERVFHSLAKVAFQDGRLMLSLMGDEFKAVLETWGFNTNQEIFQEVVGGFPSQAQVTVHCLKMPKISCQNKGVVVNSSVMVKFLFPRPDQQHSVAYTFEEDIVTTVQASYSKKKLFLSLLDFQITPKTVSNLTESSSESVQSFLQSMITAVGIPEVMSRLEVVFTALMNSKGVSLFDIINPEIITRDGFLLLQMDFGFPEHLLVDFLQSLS
Test: CETP activity in vitro: transfer of [3H]CE from HDL donor to LDL acceptor particles
Assay type: biochemical
Settings: for CE transferred: @ 100 μm, footnotes A and B of Table 6
Procedure: The ability of compounds to inhibit CETP were assessed using an in vitro assay that measured the rate of transfer of radiolabeled cholesteryl ester ([^3H]CE) from HDL donor particles to LDL acceptor particles. Details of the assay are provided by Glenn et al. (“Quantification of Cholesteryl Ester Transfer Protein (CETP): A) CETP Activity and B) Immunochemical Assay of CETP Protein,” Meth. Enzymol., Glenn and Melton (Meth. Enzymol., 263, 339-351 (1996), which is incorporated herein by reference). CETP was obtained from the serum-free conditioned medium of CHO cells transfected with a cDNA for CETP (Wang, S. et al. J. Biol Chem. 267, 17487-17490 (1992), which is incorporated herein by reference).
To measure CETP activity, [^3H]CE-labeled HDL, LDL, CETP and assay buffer (50 mM tris(hydroxymethyl)amino-methane, pH 7.4; 150 mM sodium chloride; 2 mM ethylenediamine-tetraacetic acid; 1% bovine serum albumin) were incubated in a volume of 200 μl, for 2 hours at 37° C. in 96 well plates. LDL was differentially precipitated by the addition of 50 μl of 1% (w/v) dextran sulfate/0.5 M magnesium chloride, mixed by vortex, and incubated at room temperature for 10 minutes The solution (200μl) was transferred to a filter plate (Millipore). After filtration, the radioactivity present in the precipitated LDL was measured by liquid scintillation counting.
This value was defined as the IC50.

[1] = 50% inhibition of [3H]CE transfer from HDL to LDL, 2 hours at 37° C., read-out: IC50(μm)
[2] = Table 6, compounds of formula T-6, read-out: IC50
[3] = IC50, Table 6, compounds of formula T-6

SMILES	IC50 [2] [µM]	also measured
COC(=O)c1c(C(F)F)nc(C(F)(F)F)c(C(=O)Oc2ccc(C(C)(C)C)cc2C(C)(C)C)c1CC(C)C [Compound 168, 3-Methyl 5-(2,4-Di-t-butylphenyl) 2-(Difluoromethyl)-4-(2-methylpropyl)-6-(trifluoromethyl)-3,5-pyridicarboxylate]		IC50 [1]: 60 µM
COC(=O)c1c(C(F)F)nc(C(F)(F)F)c(C(=O)Oc2ccc(C(C)C)cc2Cc2ccc(F)cc2)c1CC(C)C [Compound 170, 3-Methyl 5-[2-(4-Fluorobenzyl)-4-isopropylphenyl]2-(Difluoromethyl)-4-(2-methylpropyl)-6-(trifluoromethyl)-3,5-pyridicarboxylate]		IC50 [1]: 40 µM
COC(=O)c1c(C(F)F)nc(C(F)(F)F)c(C(=O)Oc2ccccc2C(C)C)c1CC(C)C [Compound 175, 3-Methyl 5-(2-Isopropylphenyl) 2-(Difluoromethyl)-4-(2-methylpropyl)-6-(trifluoromethyl)-3,5-pyridicarboxylate]		IC50 (IC50(μm), 50% inhibition of [3H]CE transfer from HDL to LDL, 2 hours at 37° C.): > 100 µM
COC(=O)c1c(C(F)F)nc(C(F)(F)F)c(CSc2c(C(F)(F)F)nc(C(F)F)c(C(=O)OC)c2CC(C)C)c1CC(C)C [Compound 182, Methyl 5-{[3-(Carbomethoxy)-2-(difluoromethyl)-4-isobutyl-6-(trifluoromethyl)-5-pyridyl]thiomethyl}-2-(difluoromethyl)-4-isobutyl-6-(trifluoromethyl)-3-pyridinecarboxylate]		IC50 (Table 5, compounds of formula T-5, read-out: IC50): 19 µM
COC(=O)c1c(C(F)F)nc(C(F)(F)F)c(SC(=O)c2c(C(F)(F)F)nc(C(F)F)c(C(=O)OC)c2CC(C)C)c1CC(C)C [Compound 183, Methyl 5-{[2-(Difluoromethyl)-4-(2-methylpropyl)-3-(methoxycarbonyl)-6-(trifluoromethyl)-5-pyridyl]carbonylthio}-2-(difluoromethyl)-4-(2-methylpropyl)-6-(trifluoromethyl)-3-pyridinecarboxylate]		IC50 (IC50, Table 5, compounds of formula T-5): 50 µM
COC(=O)c1c(C(F)F)nc(C(F)(F)F)c(CSc2ccc(Cl)cc2)c1CC(C)C [Compound 185, Methyl 5-[(4-Chlorophenyl)thiomethyl]-2-(difluoromethyl)-4-(2-methylpropyl)-6-(trifluoromethyl)-3-pyridinecarboxylate]		IC50 [3]: 10 µM
COC(=O)c1c(C(F)F)nc(C(F)(F)F)c(CSc2cc(C(C)(C)C)cc(C(C)(C)C)c2)c1CC(C)C [Compound 187, Methyl 5-[(3,5-Di-t-butylphenyl)thiomethyl]-2-(difluoromethyl)-4-(2-methylpropyl)-6-(trifluoromethyl)-3-pyridinecarboxylate]	40	
COC(=O)c1c(C(F)F)nc(C(F)(F)F)c(CSc2nccn2C)c1CC(C)C [Compound 188, Methyl 5-[(1-Methylimidazol-2-yl)thiomethyl]-2-(difluoromethyl)-4-(2-methylpropyl)-6-(trifluoromethyl)-3-pyridinecarboxylate]		CE transferred: ^A90% CE transferred @ 100 μm.; IC50 [3]: > 100 µM
COC(=O)c1c(C(F)F)nc(C(F)(F)F)c(CSc2nc3ccc([N+](=O)[O-])cc3[nH]2)c1CC(C)C [Compound 190, Methyl 5-[(5-Nitrobenzimidazol-2-yl)thiomethyl]-2-(difluoromethyl)-4-(2-methylpropyl)-6-(trifluoromethyl)-3-pyridinecarboxylate]	25	
COC(=O)c1c(C(F)F)nc(C(F)(F)F)c(CSc2ccc(OC(F)(F)F)cc2)c1CC(C)C [Compound 191]		IC50 [3]: 10 µM
COC(=O)c1c(C(F)F)nc(C(F)(F)F)c(CSc2ccc3ccccc3n2)c1CC(C)C [Compound 192, Methyl 5-[(Quinolin-2-yl)thiomethyl]-2-(difluoromethyl)-4-(2-methylpropyl)-6-(trifluoromethyl)-3-pyridinecarboxylate]	40	
COC(=O)c1c(C(F)F)nc(C(F)(F)F)c(CSc2ccc([N+](=O)[O-])cc2)c1CC(C)C [Compound 198, Methyl 5-[(4-Nitrophenyl)thiomethyl]-2-(difluoromethyl)-4-(2-methylpropyl)-6-(trifluoromethyl)-3-pyridinecarboxylate]		IC50 [3]: 7 µM
COC(=O)c1c(C(F)F)nc(C(F)(F)F)c(CSc2ccc(OC)cc2)c1CC(C)C [Compound 199, Methyl 5-[(4-Methoxyphenyl)thiomethyl]-2-(difluoromethyl)-4-(2-methylpropyl)-6-(trifluoromethyl)-3-pyridinecarboxylate]	20	
COC(=O)c1c(C(F)F)nc(C(F)(F)F)c(CSc2cccc3cccnc23)c1CC(C)C [Compound 202, Methyl 5-[(Quinolin-8-yl)thiomethyl]-2-(difluoromethyl)-4-(2-methylpropyl)-6-(trifluoromethyl)-3-pyridinecarboxylate]	80	
COC(=O)c1c(C(F)F)nc(C(F)(F)F)c(CSc2ncccn2)c1CC(C)C [Compound 203, Methyl 5-[(Pyrimidin-2-yl)thiomethyl]-2-(difluoromethyl)-4-(2-methylpropyl)-6-(trifluoromethyl)-3-pyridinecarboxylate]	70	

Continued, in another order:

IC50 [2] [µM]	SMILES	also measured
30	COC(=O)c1c(C(F)F)nc(C(F)(F)F)c(CSc2cccc(Br)c2)c1CC(C)C [Compound 184, Methyl 5-[(3-Bromophenyl)thiomethyl]-2-(difluoromethyl)-4-(2-methylpropyl)-6-(trifluoromethyl)-3-pyridinecarboxylate]	
50	COC(=O)c1c(C(F)F)nc(C(F)(F)F)c(CSc2c(F)c(F)cc(F)c2F)c1CC(C)C [Compound 186, Methyl 5-[(2,3,5,6-Tetrafluorophenyl)thiomethyl]-2-(difluoromethyl)-4-(2-methylpropyl)-6-(trifluoromethyl)-3-pyridinecarboxylate]	
> 100	COC(=O)c1c(C(F)F)nc(C(F)(F)F)c(CSc2nnnn2C)c1CC(C)C [Compound 189, Methyl 5-[(1-Methyltetrazol-5-yl)thiomethyl]-2-(difluoromethyl)-4-(2-methylpropyl)-6-(trifluoromethyl)-3-pyridinecarboxylate]	CE transferred: ^A90% CE transferred @ 100 μm.
20	COC(=O)c1c(C(F)F)nc(C(F)(F)F)c(CSc2ccc(Br)cc2)c1CC(C)C [Compound 193, Methyl 5-[(4-Bromophenyl)thiomethyl]-2-(difluoromethyl)-4-(2-methylpropyl)-6-(trifluoromethyl) -3-pyridinecarboxylate]	
30	COC(=O)c1c(C(F)F)nc(C(F)(F)F)c(CSc2c(F)c(F)c(F)c(F)c2F)c1CC(C)C [Compound 194, Methyl 5-[(Pentafluorophenyl)thiomethyl]-2-(difluoromethyl)-4-(2-methylpropyl)-6-(trifluoromethyl)-3-pyridinecarboxylate]	
50	COC(=O)c1c(C(F)F)nc(C(F)(F)F)c(CSc2cc(Cl)ccc2Cl)c1CC(C)C [Compound 195, Methyl 5-[(2,5-Dichlorophenyl)thiomethyl]-2-(difluoromethyl)-4-(2-methylpropyl)-6-(trifluoromethyl)-3-pyridinecarboxylate]	
20	COC(=O)c1c(C(F)F)nc(C(F)(F)F)c(CSc2c(F)c(F)c(C(F)(F)F)c(F)c2F)c1CC(C)C [Compound 196, Methyl 5-[(2,3,5,6-Tetrafluoro-4-(trifluoromethyl)phenyl)thiomethyl]-2-(difluoromethyl)-4-(2-methylpropyl)-6-(trifluoromethyl)-3-pyridinecarboxylate]	
60	COC(=O)c1c(C(F)F)nc(C(F)(F)F)c(CSc2nccc(C)n2)c1CC(C)C [Compound 197, Methyl 5-[(4-Methylpyrimidin-2-yl)thiomethyl]-2-(difluoromethyl)-4-(2-methylpropyl)-6-(trifluoromethyl)-3-pyridinecarboxylate]	
40	COC(=O)c1c(C(F)F)nc(C(F)(F)F)c(CSc2ccccc2Cl)c1CC(C)C [Compound 200, Methyl 5-[(2-Chlorophenyl)thiomethyl]-2-(difluoromethyl)-4-(2-methylpropyl)-6-(trifluoromethyl)-3-pyridinecarboxylate]	
30	COC(=O)c1c(C(F)F)nc(C(F)(F)F)c(CSc2c(Cl)cccc2Cl)c1CC(C)C [Compound 201, Methyl 5-[(2,6-Dichlorophenyl)thiomethyl]-2-(difluoromethyl)-4-(2-methylpropyl)-6-(trifluoromethyl)-3-pyridinecarboxylate]	
